For test [1], the target named is T1, 5-hydroxytryptamine receptor 2A (Rattus norvegicus, UniProt P14842). Details: species or system Tissue.
For test [2], the target named is T2, D(1A) dopamine receptor (Rattus norvegicus, UniProt P18901). Details: species or system Tissue.
A further test has as its target D(2) dopamine receptor (Rattus norvegicus, UniProt P61169). Details: species or system Tissue.
The target of test [3] is T3, D(3) dopamine receptor (Rattus norvegicus, UniProt P19020). It counts as cell-based. The conditions noted are these: sf9.
T3 sequence (P19020 whole entry): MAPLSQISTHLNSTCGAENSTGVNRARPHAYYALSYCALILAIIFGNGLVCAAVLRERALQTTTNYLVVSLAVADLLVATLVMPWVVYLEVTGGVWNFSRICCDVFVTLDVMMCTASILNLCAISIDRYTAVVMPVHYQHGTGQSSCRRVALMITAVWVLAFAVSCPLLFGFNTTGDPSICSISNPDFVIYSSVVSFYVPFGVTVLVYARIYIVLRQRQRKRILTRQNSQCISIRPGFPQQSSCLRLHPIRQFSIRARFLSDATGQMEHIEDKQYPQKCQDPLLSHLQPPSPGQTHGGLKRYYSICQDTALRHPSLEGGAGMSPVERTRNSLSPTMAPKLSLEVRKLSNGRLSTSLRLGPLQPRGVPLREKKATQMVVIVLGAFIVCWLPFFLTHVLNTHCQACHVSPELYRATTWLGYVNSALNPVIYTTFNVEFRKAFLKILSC
Description: (§1) In vitro binding affinity towards Dopamine receptor D3 in Sf9 cell membranes using [3H]7-OH-DPAT as radioligand
Test [4] is filed under the species Mus musculus. As to the kind of experiment: animal or person. It counts as functional. The conditions noted are these: po.
Description: In vivo inhibitory activity against 5-MeO-DMT-Induced Head-Twitches in mouse after oral administration
Test [5] is filed under the species Rattus norvegicus. As to the kind of experiment: animal or person. It counts as functional. To be noted: po.
Description: In vivo inhibition against catalepsy in rats after oral administration evaluated by metal bar
The species named for test [6] is Mus musculus.
Test [7] concerns the target T3, D(3) dopamine receptor. Nature of the test: biochemical. It counts as cell-based, Sf9.
Description: as §1
Test [8] addresses T1, 5-hydroxytryptamine receptor 2A.
Description: In vitro binding affinity towards 5-hydroxytryptamine 2A receptor in rat tissue homogenate using [3H]ketanserin as radioligand
The target in test [9] is T4, Adrenergic receptor alpha-1 (Rattus norvegicus, UniProt P15823+P23944+P43140).
T4 sequence (P15823 whole entry): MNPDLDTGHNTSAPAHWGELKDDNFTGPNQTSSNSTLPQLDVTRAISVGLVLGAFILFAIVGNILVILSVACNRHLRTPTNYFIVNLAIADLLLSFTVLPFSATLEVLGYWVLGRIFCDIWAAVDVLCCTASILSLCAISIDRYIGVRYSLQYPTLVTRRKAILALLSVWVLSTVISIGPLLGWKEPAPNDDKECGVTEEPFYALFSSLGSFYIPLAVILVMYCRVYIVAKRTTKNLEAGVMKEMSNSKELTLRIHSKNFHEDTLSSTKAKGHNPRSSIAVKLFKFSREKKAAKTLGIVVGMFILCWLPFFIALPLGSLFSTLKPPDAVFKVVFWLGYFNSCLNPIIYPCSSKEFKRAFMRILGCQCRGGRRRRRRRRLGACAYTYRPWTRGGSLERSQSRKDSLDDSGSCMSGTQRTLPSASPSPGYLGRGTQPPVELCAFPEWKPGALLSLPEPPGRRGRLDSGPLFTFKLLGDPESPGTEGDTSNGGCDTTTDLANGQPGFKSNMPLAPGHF
T4 sequence (P23944 whole entry): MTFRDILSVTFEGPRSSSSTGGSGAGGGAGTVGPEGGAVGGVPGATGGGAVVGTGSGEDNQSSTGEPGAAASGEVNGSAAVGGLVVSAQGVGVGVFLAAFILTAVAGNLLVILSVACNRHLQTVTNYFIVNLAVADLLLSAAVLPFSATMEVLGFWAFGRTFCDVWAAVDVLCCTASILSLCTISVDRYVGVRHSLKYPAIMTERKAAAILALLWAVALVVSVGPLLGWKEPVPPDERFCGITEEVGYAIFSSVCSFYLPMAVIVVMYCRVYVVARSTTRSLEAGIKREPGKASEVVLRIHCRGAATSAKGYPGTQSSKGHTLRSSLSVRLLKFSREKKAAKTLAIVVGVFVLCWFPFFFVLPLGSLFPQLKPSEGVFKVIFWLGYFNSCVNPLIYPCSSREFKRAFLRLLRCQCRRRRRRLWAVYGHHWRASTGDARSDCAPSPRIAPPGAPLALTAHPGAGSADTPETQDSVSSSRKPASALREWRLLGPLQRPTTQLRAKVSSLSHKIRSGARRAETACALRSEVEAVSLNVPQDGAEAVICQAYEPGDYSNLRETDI
T4 sequence (P43140 whole entry): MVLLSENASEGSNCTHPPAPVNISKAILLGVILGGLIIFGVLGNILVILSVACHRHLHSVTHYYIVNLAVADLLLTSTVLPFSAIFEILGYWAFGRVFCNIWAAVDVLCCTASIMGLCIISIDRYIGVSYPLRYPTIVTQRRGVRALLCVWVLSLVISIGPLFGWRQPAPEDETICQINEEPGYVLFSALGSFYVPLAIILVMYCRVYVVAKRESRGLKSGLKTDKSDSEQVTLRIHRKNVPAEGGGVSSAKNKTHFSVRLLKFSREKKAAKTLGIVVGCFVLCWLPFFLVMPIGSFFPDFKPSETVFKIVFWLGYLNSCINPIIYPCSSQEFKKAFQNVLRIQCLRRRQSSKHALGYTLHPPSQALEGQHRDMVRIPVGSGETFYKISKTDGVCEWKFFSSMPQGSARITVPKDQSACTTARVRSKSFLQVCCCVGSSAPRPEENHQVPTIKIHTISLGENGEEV
It counts as tissue-based, Frontal cortex.
Description: In vitro binding affinity towards alpha-1 adrenergic receptor in rat frontal cortex homogenate using of [3H]prazosin as radioligand

For the next test, the target named is Histamine H1 receptor (Rattus norvegicus, UniProt P31390). As to the kind of experiment: biochemical. It counts as tissue-based, Frontal cortex.
Sequence of Histamine H1 receptor (P31390 whole entry): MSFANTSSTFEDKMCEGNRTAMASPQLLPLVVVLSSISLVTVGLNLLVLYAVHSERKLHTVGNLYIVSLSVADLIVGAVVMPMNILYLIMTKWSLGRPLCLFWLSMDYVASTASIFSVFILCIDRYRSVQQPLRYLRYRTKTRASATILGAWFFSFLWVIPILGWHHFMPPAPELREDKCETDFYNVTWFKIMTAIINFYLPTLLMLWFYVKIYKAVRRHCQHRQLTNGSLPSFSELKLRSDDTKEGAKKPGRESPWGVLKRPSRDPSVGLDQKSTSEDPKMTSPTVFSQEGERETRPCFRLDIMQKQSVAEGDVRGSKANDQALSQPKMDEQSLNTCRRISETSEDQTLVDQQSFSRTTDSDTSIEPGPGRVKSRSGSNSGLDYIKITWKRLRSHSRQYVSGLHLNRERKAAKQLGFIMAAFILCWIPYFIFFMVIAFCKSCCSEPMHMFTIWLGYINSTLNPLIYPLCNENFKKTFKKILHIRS
Test [10] deals with T5, Muscarinic acetylcholine receptor M1 (Rattus norvegicus, UniProt P08482).
T5 sequence (P08482 whole entry): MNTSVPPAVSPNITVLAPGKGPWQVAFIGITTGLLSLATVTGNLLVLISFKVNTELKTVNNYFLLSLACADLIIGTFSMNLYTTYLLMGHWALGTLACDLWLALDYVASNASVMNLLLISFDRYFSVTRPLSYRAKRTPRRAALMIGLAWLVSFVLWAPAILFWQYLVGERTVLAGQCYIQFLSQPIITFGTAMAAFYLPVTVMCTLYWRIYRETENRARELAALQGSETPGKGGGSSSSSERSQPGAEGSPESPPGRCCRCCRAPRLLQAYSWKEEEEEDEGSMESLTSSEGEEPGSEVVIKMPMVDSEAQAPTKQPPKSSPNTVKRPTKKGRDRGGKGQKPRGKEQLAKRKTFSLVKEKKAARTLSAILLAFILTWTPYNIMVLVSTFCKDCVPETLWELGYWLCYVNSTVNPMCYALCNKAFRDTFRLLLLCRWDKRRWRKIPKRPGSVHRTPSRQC
As to the kind of experiment: biochemical. It counts as tissue-based, Frontal cortex.
Description: In vitro binding affinity towards M1 receptor of rat frontal cortex homogenate by using radioligand [3H]QNB

The target of test [11] is T2, D(1A) dopamine receptor. Details: species or system Tissue. This is another data set of the same source.
Description: In vitro binding affinity towards Dopamine receptor D1 in rat tissue homogenate using [3H]-SCH- 23390 as radioligand
Test [12] has as its target 5-hydroxytryptamine receptor 2A (Homo sapiens, UniProt P28223).
Description: In vitro binding affinity towards 5-hydroxytryptamine 2A receptor in human using [3H]ketanserin as radioligand
Test [13] addresses T6, Adrenergic receptor alpha-2 (Rattus norvegicus, UniProt P22086+P19328+P22909).
T6 sequence (P22086 whole entry): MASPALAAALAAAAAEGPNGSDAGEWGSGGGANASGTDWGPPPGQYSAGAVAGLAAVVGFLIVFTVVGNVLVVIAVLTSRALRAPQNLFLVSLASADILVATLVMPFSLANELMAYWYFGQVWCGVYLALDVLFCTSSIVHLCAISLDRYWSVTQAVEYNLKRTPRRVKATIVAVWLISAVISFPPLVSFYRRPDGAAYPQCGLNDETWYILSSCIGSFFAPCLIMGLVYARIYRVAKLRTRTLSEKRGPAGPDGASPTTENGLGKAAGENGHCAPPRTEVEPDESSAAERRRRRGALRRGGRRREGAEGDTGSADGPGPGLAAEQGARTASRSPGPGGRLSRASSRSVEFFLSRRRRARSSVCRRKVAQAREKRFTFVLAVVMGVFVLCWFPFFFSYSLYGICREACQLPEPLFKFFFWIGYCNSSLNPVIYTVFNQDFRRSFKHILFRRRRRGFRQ
T6 sequence (P19328 whole entry): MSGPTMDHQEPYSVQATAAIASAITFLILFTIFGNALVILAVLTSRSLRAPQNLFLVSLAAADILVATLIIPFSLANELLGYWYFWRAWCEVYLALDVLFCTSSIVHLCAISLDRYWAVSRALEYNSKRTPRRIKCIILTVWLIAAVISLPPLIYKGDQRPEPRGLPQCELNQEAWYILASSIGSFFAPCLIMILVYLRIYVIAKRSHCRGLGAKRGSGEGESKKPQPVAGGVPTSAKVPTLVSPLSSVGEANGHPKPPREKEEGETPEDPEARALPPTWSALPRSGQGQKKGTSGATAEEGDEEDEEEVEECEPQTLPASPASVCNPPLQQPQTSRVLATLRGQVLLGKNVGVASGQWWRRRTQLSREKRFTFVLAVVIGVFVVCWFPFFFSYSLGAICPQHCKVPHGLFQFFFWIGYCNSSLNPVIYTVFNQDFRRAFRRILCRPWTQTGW
T6 sequence (P22909 whole entry): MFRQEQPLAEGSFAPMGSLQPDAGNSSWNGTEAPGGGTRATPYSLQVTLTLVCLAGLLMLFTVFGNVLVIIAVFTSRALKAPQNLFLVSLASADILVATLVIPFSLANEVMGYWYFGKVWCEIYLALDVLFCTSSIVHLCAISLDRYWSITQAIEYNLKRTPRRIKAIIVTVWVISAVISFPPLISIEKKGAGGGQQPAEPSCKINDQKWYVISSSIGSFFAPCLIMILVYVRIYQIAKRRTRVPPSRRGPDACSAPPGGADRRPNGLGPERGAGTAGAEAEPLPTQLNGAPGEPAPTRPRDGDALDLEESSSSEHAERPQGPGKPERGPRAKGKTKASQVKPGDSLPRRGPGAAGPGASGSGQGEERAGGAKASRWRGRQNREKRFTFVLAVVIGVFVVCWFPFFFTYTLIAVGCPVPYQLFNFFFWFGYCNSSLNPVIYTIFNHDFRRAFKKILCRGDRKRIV
It counts as tissue-based, Frontal cortex.
Description: In vitro binding affinity towards alpha-2 adrenergic receptor in rat frontal cortex homogenate using of [3H]clonidine as radioligand

Test [14] is filed under the species Mus musculus. Nature of the test: animal or person. It counts as functional. To be noted: po. This is another data set of the same source.
Description: In vivo inhibitory activity tested in apomorphine climbing mice after oral administration
The species named for test [15] is Rattus norvegicus. As to the kind of experiment: animal or person. The conditions noted are these: po. It counts as functional. This is another data set of the same source.
Description: In vivo inhibition against MK-801 induced hyperactivity in rats after oral administration
The species named for test [16] is Rattus norvegicus. It counts as functional. The conditions noted are these: dose 0.3 mg/kg, route intraperitoneal.
Description: Inhibitory activity tested in rats after intraperitoneal administration at 0.3 mg/kg with saline
The species entered for test [17] is Rattus norvegicus. As to the kind of experiment: animal or person. It counts as functional. To be noted: po. This is another data set of the same source.
Description: In vivo inhibition of spontaneous locomotory activity tested in rats after oral administration
The species named for test [18] is Rattus norvegicus. As to the kind of experiment: animal or person. It counts as functional. To be noted: po. This is another data set of the same source.
Description: In vivo inhibition against conditioned avoidance response in rats after oral administration
The species entered for test [19] is Rattus norvegicus. It counts as functional.
Description: Minimal inhibitory activity tested in rats after intraperitoneal administration

Where “and” joins values, the source holds several entries; their conditions need not be identical. Equal entries are not always repeated. Calls of active or inactive are those of the source. The rule behind the calls is not given here. Some results are limits rather than exact numbers.

T2 sequence (P18901 whole entry): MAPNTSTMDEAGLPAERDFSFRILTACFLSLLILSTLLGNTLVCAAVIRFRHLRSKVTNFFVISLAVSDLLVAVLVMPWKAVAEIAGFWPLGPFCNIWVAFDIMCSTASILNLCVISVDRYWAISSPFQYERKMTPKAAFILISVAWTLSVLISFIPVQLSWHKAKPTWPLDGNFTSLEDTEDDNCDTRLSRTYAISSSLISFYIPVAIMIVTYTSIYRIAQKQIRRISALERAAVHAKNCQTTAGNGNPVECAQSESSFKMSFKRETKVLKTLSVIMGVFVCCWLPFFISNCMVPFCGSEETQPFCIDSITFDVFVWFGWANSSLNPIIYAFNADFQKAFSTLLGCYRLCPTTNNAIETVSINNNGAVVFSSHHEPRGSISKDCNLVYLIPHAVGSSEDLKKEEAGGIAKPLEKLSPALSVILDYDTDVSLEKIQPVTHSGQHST
T1 sequence (P14842 whole entry): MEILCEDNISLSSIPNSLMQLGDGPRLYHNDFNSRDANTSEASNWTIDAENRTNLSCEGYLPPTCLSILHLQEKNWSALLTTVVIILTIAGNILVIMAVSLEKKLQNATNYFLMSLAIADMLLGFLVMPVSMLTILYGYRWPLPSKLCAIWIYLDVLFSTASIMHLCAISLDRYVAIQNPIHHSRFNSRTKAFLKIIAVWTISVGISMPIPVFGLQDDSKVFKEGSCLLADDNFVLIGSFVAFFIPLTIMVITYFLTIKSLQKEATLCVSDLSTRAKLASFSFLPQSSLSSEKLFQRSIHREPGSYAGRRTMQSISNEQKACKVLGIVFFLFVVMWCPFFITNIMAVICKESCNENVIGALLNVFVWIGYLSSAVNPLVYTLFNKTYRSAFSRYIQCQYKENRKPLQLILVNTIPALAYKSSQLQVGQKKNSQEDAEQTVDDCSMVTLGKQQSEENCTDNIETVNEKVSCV
Sequence of D(2) dopamine receptor (P61169 whole entry): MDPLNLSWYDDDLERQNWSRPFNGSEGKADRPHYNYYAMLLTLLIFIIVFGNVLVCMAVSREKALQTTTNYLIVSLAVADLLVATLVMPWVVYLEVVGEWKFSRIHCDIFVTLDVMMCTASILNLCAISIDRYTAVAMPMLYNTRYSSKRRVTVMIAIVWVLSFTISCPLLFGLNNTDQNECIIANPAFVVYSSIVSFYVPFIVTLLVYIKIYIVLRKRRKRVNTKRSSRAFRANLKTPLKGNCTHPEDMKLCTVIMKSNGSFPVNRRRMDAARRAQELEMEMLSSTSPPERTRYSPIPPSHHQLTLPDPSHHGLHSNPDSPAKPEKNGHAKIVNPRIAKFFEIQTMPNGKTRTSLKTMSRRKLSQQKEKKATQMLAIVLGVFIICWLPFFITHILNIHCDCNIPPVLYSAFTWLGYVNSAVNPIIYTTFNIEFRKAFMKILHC
Sequence of 5-hydroxytryptamine receptor 2A (Homo sapiens, UniProt P28223) (P28223 whole entry): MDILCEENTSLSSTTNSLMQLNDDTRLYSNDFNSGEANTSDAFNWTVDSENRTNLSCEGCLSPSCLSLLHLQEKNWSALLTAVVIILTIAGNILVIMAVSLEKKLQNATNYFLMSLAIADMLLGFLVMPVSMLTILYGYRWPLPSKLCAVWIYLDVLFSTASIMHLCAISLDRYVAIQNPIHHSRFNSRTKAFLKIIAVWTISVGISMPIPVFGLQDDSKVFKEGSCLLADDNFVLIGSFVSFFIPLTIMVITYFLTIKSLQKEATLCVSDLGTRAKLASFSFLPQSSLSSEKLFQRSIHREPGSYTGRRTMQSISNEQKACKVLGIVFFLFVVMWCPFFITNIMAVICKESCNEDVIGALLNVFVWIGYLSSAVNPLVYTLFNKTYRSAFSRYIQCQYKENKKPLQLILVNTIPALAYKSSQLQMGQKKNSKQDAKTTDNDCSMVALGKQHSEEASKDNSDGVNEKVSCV
Description for Histamine H1 receptor: In vitro binding affinity towards Histamine H1 receptor of rat frontal cortex homogenate by using radioligand [3H]pyrilamine

For the molecule `CN1CCN(C2Cn3c(CO)ccc3Sc3ccc(Cl)cc32)CC1` (configuration not stated), the Ki entry (in test [1]; at D(1A) dopamine receptor [2]; at D(2) dopamine receptor; at D(3) dopamine receptor [3]) was “Not Active” throughout.
Consider `CN1CCN([C@@H]2Cn3cccc3Sc3ccc(Cl)cc32)CC1`, for which the ED50 (usually the dose that gives a 50% effect, or the effect in half of the subjects) was found to be 14.3 µmol/kg in the test listed under Mus musculus [4] and 115 µmol/kg in the test listed under Rattus norvegicus [5]. For the same molecule, the ED50 result in the test filed under Mus musculus [6] was “inactive”.
On to `CN1CCN(C2=C(C=O)n3c(C=O)ccc3Sc3ccccc32)CC1`, for which the Ki (usually the equilibrium dissociation constant of an inhibitor or competing ligand from its target) was “Not Active” at D(1A) dopamine receptor [2], “Not Active” at D(2) dopamine receptor, > 1 µM on D(3) dopamine receptor [7] and 2.3 µM in [8].
Consider `CN1CCN(C2=Cn3c(/C=N/O)ccc3Sc3ccccc32)CC1`, for which the Ki result at D(1A) dopamine receptor [2] is “Not Active”; on D(2) dopamine receptor it was “Not Active”; on D(3) dopamine receptor [7], 4.26 µM; in [8] it was 1.98 µM.
Consider `Cc1ccc2n1C=C(N1CCN(C)CC1)c1ccccc1S2`, for which the Ki in [9] turned out to be 0.0042 µM; on Histamine H1 receptor, 0.0027 µM; in [10] it was 2.3 µM.
Consider `COCc1ccc2n1CC(N1CCN(C)CC1)c1cc(Cl)ccc1S2` (configuration not stated), for which the results for the Ki (on D(1A) dopamine receptor [11]; on D(3) dopamine receptor [7]; in test [8]) were > 1000 µM, 0.316 µM and 0.405 µM, respectively.
`CN1CCN(C2=Cn3cccc3Sc3ccccc32)CC1`: the Ki in test [12] was 0.0011 µM; in [9] it was 0.0005 µM; in test [13], 1.02 µM; on Histamine H1 receptor, 0.0027 µM; in test [10] it was 2.07 µM. Besides, the ED50 in the test filed under Mus musculus [14] is 1.64 mg/kg and 5.5 µmol/kg; in the test filed under Mus musculus [4], 1.99 mg/kg and 6.7 µmol/kg; in the test listed under Rattus norvegicus [15] it was 1.1 mg/kg and 3.69 µmol/kg; in the test listed under Rattus norvegicus [17] it was 0.51 mg/kg and 1.71 µmol/kg; in the test filed under Rattus norvegicus [5], > 100 mg/kg and > 336 µmol/kg; in the test listed under Rattus norvegicus [18], 1.1 mg/kg and 3.7 µmol/kg. For the same molecule, the Correct responses in the test filed under Rattus norvegicus [16] is 80.1% and 81.5%. Also, the “Min ID” value in the test filed under Rattus norvegicus [19] came out at 1 µM/kg.
With `CN1CCN(C2=Cn3c(CO)ccc3Sc3ccccc32)CC1`, the Ki at D(1A) dopamine receptor [11] was 1.74 µM; on D(3) dopamine receptor [7] it was 0.113 µM; in test [8], 0.019 µM.
Consider `CN1CCCN(C2=Cn3cccc3Sc3ccc(Cl)cc32)CC1`, for which the results for the Ki (on D(1A) dopamine receptor [11]; at D(3) dopamine receptor [7]; in [8]) were 0.00587 µM, 0.0043 µM and 0.0043 µM, respectively.
As for `CC(C)OCc1ccc2n1C=C(N1CCN(C)CC1)c1ccccc1S2`, the Ki on D(1A) dopamine receptor [11] was determined as 7.6 µM; at D(3) dopamine receptor [7] it was 0.278 µM; in test [8] it was 0.217 µM.
The matching figures for `CN1CCN(C2=Cn3c(C=O)ccc3Sc3ccccc32)CC1`: 4.28 µM, 0.102 µM and 0.02 µM.
On the same counts, the results for `O=C1NCCN1CCN1CCN(C2Cn3cccc3Sc3ccc(Cl)cc32)CC1` (configuration not stated) are 1.62 µM, 0.066 µM and 0.074 µM.
On the same counts, the results for `CN1CCN(C2=Cn3cccc3Sc3ccc(Br)cc32)CC1` are 0.0034 µM, 0.00025 µM and 0.00083 µM.

For the origin of these results see ChEMBL document CHEMBL1139457, “Pyrrolo[1,3]benzothiazepine-based serotonin and dopamine receptor antagonists. Molecular modeling, further structure-activity relationship studies, and identification of novel atypical antipsychotic agents” (J Med Chem, 2004).
